In one data set the test system is HT29 cells. Set-up: method as in PMID 16889929. To be noted: cited from earlier work.
For another data set, the system named is Trichophyton rubrum. Set-up: method as in PMID 26428920. Conditions: cited from earlier work.
The nature of data set [1]: Identification of violacein metabolites in RLMs by LC-QTOF. The class given is in vitro ADME, rat. To be noted: all samples after 120 min of reaction, 105 µM violacein, 5 mg/mL protein. Here is the method:
The metabolism of violacein was investigated using HLMs and RLMs, by incubating the samples for 120 min under four conditions (n = 1): zero sample, phase I-only incubation, phase I and II incubation, and phase II-only incubation, as described by Godoi et al..
For all samples, 25 µL of the 843 µM violacein stock solution was added to propylene tubes and evaporated to dryness under a nitrogen stream. The dried residue was then reconstituted with 2 µL of methanol, ensuring that the final organic solvent concentration remained below 1% to minimize any potential impact on microsomal activity, as described by Jia et al..
To assess phase I metabolism, 148 μL of an NADPH-regenerating system containing 1.1 mM NADP+, 10 mM glucose-6-phosphate, 1 U/mL glucose-6-phosphate dehydrogenase, 5 mM sodium citrate, and 66 mM magnesium chloride in 100 mM phosphate buffer (pH 7.4) were added to the tubes. The solutions were pre-incubated for 5 min at 37 °C and 300 rpm in an MTC 100 thermo shaker incubator, and metabolic reactions were initiated by adding 50 μL of HLMs or RLMs (20 mg/mL), to yield final concentrations of 105 µM violacein and 5 mg of microsomal protein/mL. […]
The acquired chromatograms and mass spectra were analyzed using Insight Explore software version 1.0.0.0 (Shimadzu, Kyoto, Japan). […]

The source of these data is paper PMC12114947, “Evaluation of Violacein Metabolic Stability and Metabolite Identification in Human, Mouse, and Rat Liver Microsomes” (Pharmaceutics, 2025).

A word on the pIC50: it is −log10 of the IC50, conventionally taken in molar units. As a reminder, the MIC is the lowest concentration that inhibits growth of the organism.

pIC50: −log10 of the molar value. Values after ≈ are worked out from the molar mass of the structure shown.

On to `O=C1NC(c2c[nH]c3ccc(O)cc23)=C/C1=C1\C(=O)Nc2ccccc21` [violacein], for which the negative logarithm of the IC50 (pIC50) in the data set on HT29 cells is less than 5.00. In the data set on Trichophyton rubrum, the MIC was 2 mg/L (≈ 5.83 µM). In addition, the Violacein metabolized result in data set [1] is reported as “Approximately 50%”.
